# Results: the supplement of paper PMC10307832
# Tests used:
# Test in all cases: relative viability (nuclei count vs DMSO), 5 days (fraction); higher = more cells survive
# GSK-J4 + Foretinib = compound: CCOC(=O)CCNc1cc(N2CCc3ccccc3CC2)nc(-c2ccccn2)n1 [GSK-J4] + COc1cc2c(Oc3ccc(NC(=O)C4(C(=O)Nc5ccc(F)cc5)CC4)cc3F)ccnc2cc1OCCCN1CCOCC1 [Foretinib] (partner 0.25 µM)
# How it was run: (§1)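 Relative viability divides the nuclei count in treated wells by that in vehicle wells. Lung cancer cell lines were seeded in 1536-well plates, dosed by pin tool the next day, and fixed and stained after 5 days in one step with final 0.05% Triton X-100, 1% formaldehyde and 1 ug/ml Hoechst. Dosing was a single drug or a fixed anchor-drug dose plus five library-drug doses (not always all listed) in √10 steps, and values are medians of duplicate plates imaged at 4×.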
# AZ3146 + Tozasertib = compound: CN1CCC(CC1)OC2=CC(=C(C=C2)NC3=NC=C4C(=N3)N(C(=O)N4C)C5CCCC5)OC [AZ3146] + Cc1cc(Nc2cc(N3CCN(C)CC3)nc(Sc3ccc(NC(=O)C4CC4)cc3)n2)n[nH]1 [Tozasertib] (partner 0.1 µM)
# How it was run: as §1
# GSK-J4 + Pictilisib = compound: CCOC(=O)CCNc1cc(N2CCc3ccccc3CC2)nc(-c2ccccn2)n1 [GSK-J4] + CS(=O)(=O)N1CCN(Cc2cc3nc(-c4cccc5[nH]ncc45)nc(N4CCOCC4)c3s2)CC1 [Pictilisib] (partner 1 µM)
# How it was run: as §1
# AZ3146 + Olaparib = compound: CN1CCC(CC1)OC2=CC(=C(C=C2)NC3=NC=C4C(=N3)N(C(=O)N4C)C5CCCC5)OC [AZ3146] + O=C(c1cc(Cc2n[nH]c(=O)c3ccccc23)ccc1F)N1CCN(C(=O)C2CC2)CC1 [Olaparib] (partner 8 µM)
# How it was run: as §1
Cell Line,relative viability (GSK-J4 + Foretinib; first compound 0.5 µM),relative viability (GSK-J4 + Foretinib; first compound 1.581 µM),relative viability (GSK-J4 + Foretinib; first compound 5 µM),relative viability (GSK-J4 + Foretinib; first compound 15.81 µM),relative viability (GSK-J4 + Foretinib; first compound 50 µM),relative viability (AZ3146 + Tozasertib; first compound 0.08 µM),relative viability (AZ3146 + Tozasertib; first compound 0.253 µM),relative viability (AZ3146 + Tozasertib; first compound 0.8 µM),relative viability (AZ3146 + Tozasertib; first compound 2.53 µM),relative viability (AZ3146 + Tozasertib; first compound 8 µM),relative viability (GSK-J4 + Pictilisib; first compound 0.5 µM),relative viability (GSK-J4 + Pictilisib; first compound 1.581 µM),relative viability (GSK-J4 + Pictilisib; first compound 5 µM),relative viability (GSK-J4 + Pictilisib; first compound 15.81 µM),relative viability (GSK-J4 + Pictilisib; first compound 50 µM),relative viability (AZ3146 + Olaparib; first compound 0.08 µM),relative viability (AZ3146 + Olaparib; first compound 0.253 µM),relative viability (AZ3146 + Olaparib; first compound 0.8 µM),relative viability (AZ3146 + Olaparib; first compound 2.53 µM),relative viability (AZ3146 + Olaparib; first compound 8 µM)
NCI-H2170,0.949,0.983,0.917,1.02,0.958,0.593,0.838,0.644,0.561,0.266,0.325,0.381,0.27,0.357,0.221,0.578,0.63,0.542,0.614,0.623
HCC-78,0.571,0.508,0.675,0.589,0.631,0.315,0.449,0.347,0.404,0.44,0.202,0.185,0.889,,0.225,,0.863,0.765,0.767,0.798
NCI-H3122,0.983,1.01,0.938,1.05,0.969,0.397,0.345,0.307,0.344,0.228,0.547,0.63,0.785,0.557,0.382,0.582,0.611,0.543,0.615,0.645
NCI-H2085,0.697,0.882,0.861,1.05,0.971,0.747,0.786,0.727,0.587,0.508,0.546,0.463,0.677,0.481,0.415,0.792,0.749,0.749,0.764,0.711
HCC-366,0.955,0.881,,0.915,0.874,0.0936,0.1,0.0606,0.044,0.0336,0.125,,0.137,0.181,0.122,0.304,0.388,0.401,0.399,0.302
HCC-827,1.02,1.07,1.05,0.955,0.847,0.45,0.454,0.414,0.427,0.368,0.945,1.13,1.14,0.949,1.03,0.624,0.612,0.625,0.568,0.785
HOP-62,1,0.882,1.02,1.03,0.766,0.325,0.447,0.345,0.348,0.291,0.735,0.322,0.762,0.76,0.387,0.48,0.345,0.44,0.361,0.359
NCI-H1437,1.29,0.715,1.23,1.24,0.766,0.355,0.42,0.394,0.354,0.265,0.454,0.352,0.385,0.435,0.165,0.589,0.611,0.611,0.635,0.532
PC-14,0.902,0.832,0.794,0.926,0.963,0.33,0.589,0.543,0.386,0.0776,0.642,0.672,0.678,0.714,0.615,0.286,0.319,0.259,0.225,0.0944
NCI-H2228,0.764,1.03,0.854,0.817,1.06,0.224,0.385,0.292,0.198,0.18,0.337,0.304,0.539,0.389,0.47,0.873,0.632,0.672,0.503,0.544
CAL-12T,1.11,0.703,1.11,1.04,1.02,0.263,0.3,0.209,0.247,0.235,0.622,0.425,0.626,0.418,0.454,0.733,0.822,0.717,0.658,0.6
LOU-NH91,0.963,0.925,0.789,0.893,0.918,0.453,0.668,0.664,0.525,0.365,0.596,0.508,0.542,0.532,0.518,0.922,0.91,0.972,0.904,0.925
EMC-BAC-2,0.93,0.937,0.685,0.982,0.647,0.222,0.269,0.307,0.277,0.233,0.627,0.597,0.423,0.598,0.52,0.407,0.522,0.5,0.531,0.432
NCI-H1355,0.878,0.837,1.08,0.839,0.859,0.371,0.573,0.485,0.404,0.359,0.521,0.302,0.397,0.418,0.478,0.72,0.761,0.759,0.83,0.807
ABC-1,1.04,0.63,1.06,0.989,0.846,0.173,0.178,0.181,0.135,0.2,0.686,0.591,0.671,0.648,0.436,0.744,0.707,0.714,0.78,0.606
NCI-H727,0.808,0.835,1.03,0.99,0.518,0.546,0.495,0.455,0.575,0.439,0.379,,0.691,0.427,0.18,0.632,0.632,0.701,0.853,0.775
NCI-H1666,0.998,0.742,1.08,0.907,0.749,0.473,0.527,0.442,0.463,0.338,0.325,,0.419,0.603,0.364,0.719,0.79,0.741,0.75,0.741
NCI-H2126,1.06,1.05,1.14,0.889,0.795,0.71,0.803,0.722,0.378,0.234,0.517,0.446,0.633,0.519,0.41,0.908,0.898,0.897,0.967,0.862
NCI-H1793,0.801,0.575,0.737,0.423,0.514,0.315,0.34,0.296,0.192,0.254,0.249,0.171,0.54,0.364,0.337,0.864,0.859,0.667,0.892,0.544
LCLC-97TM1,0.972,0.953,0.909,0.856,0.561,0.206,0.216,0.208,0.228,0.146,,,0.399,0.249,0.15,0.52,0.535,0.458,0.447,0.345
COR-L23,0.927,0.901,,0.897,0.822,0.193,0.222,0.161,0.144,0.173,0.731,0.532,,0.606,0.566,0.28,0.363,0.353,0.361,0.324
HARA,0.863,,,0.805,0.751,0.115,0.15,0.0956,0.0781,0.0801,0.375,0.443,,0.524,0.156,0.618,0.926,0.818,0.924,0.841
NCI-H2023,0.759,0.737,1.11,0.735,0.709,0.331,0.328,0.171,0.157,0.147,0.303,0.182,0.332,0.264,0.132,0.464,0.451,0.494,0.436,0.152
LC-2-ad,0.909,0.763,0.868,0.781,0.775,0.323,0.44,0.424,0.365,0.269,0.548,0.458,0.622,0.547,0.322,0.697,0.724,0.697,0.733,0.658
LXF-289,0.974,0.93,1.01,0.929,0.924,0.194,0.189,0.158,0.216,0.189,0.761,0.655,0.691,0.754,0.562,1.13,0.989,1.07,1.18,1.06
NCI-H2347,1.16,0.716,1.06,0.843,0.826,0.399,0.529,0.461,0.744,0.464,0.623,0.596,0.855,0.731,0.494,0.587,0.354,0.562,0.49,0.612
RERF-LC-KJ,0.824,0.796,0.882,0.803,0.852,0.465,0.497,0.403,0.294,0.25,0.465,0.459,0.639,0.635,0.434,0.94,0.833,0.902,0.852,0.462
